System: spleen cells±ConA
Assay: Proliferation responses of splenocytes ±Con A, [3H]thymidine incorporation
Type: cell-based, mice
Details: for Con A1 / Con A2 / No Con A: incorporated radioactivity
Description: Spleen cells obtained from native or concanavalin A (Con A)-treated mice were examined in-vitro for their response to T-cell-dependent mitogens. Cells were plated in quadruplicate in 96-well, flat-bottom, microtiter plates (4×10^5 cells/0.2 ml/well) in RPMI-1640 medium supplemented with 5% heat inactivated FCS, 2 mM L-glutamine, 100 U/ml penicillin, […] streptomycin and various concentrations of compound 10 ([…]). All plates were incubated for 48 h in humidified atmosphere of 5% CO2 in air at 37° C., and then pulsed for 18 h with […] ^3[H] thymidine. Cells from each microculture were harvested on fiberglass filters using a multiharvester, and incorporated radioactivity was measured using standard scintillation techniques.

Compound: CC(CO)COCC(C)OCC(C)OCC(C)OCC(C)OCC(C)OCC(C)OCC(C)OCC(C)OCC(C)OCC(C)OCC(C)OCC(C)OCC(C)OCC(C)OCC(C)OCC(C)OCC(Cc1ccccc1)NC(=O)CCc1ccc(O)cc1 (stereo not shown) [Compound 10]
- Con A1 (100 pg/ml): 1280
- Con A2 (100 pg/ml): 3481
- No Con A (100 pg/ml): 271
- Con A1 (1 ng/ml): 733
- Con A2 (1 ng/ml): 3609
- No Con A (1 ng/ml): 284
- Con A1 (100 ng/ml): 880
- Con A2 (100 ng/ml): 2489
- No Con A (100 ng/ml): 274
- Con A1 (1 μg/ml): 986
- Con A2 (1 μg/ml): 2156
- No Con A (1 μg/ml): 333
- Con A1 (100 μg/ml): 598
- Con A2 (100 μg/ml): 1380
- No Con A (100 μg/ml): 170
- effect on the proliferation of the splenocytes (incubation with compound (Table 1)): significant inhibition

— patent publication US8309606B2, “Compounds for use in the treatment of autoimmune diseases, immuno-allergical diseases and organ or tissue transplantation rejection” (Novaremed Limited, priority 2002, dated 2012)
